We go through 7 molecules from patent publication US10525054B2 (dated 2020).

Read-outs that look alike come from different tables or passages of the source.

Data set [1] has as its system cocaine-trained rats. The following applies: cited from earlier work.
Data set [2] concerns squirrel monkeys. The following applies: cited from earlier work.
Data set [3] concerns acetic acid induced writhing in mice. The data set can be described thus: Acetic acid writhing assay in mice. The following applies: for Mean Number of writhes: in combination with Diclofenac (3 mg/kg), 30 minutes prior to i.p. 0.5% acetic acid, counted 0-20 minutes. It is filed as in vivo. Background: Writhing tests count abdominal constrictions after an irritant is injected.

Data set [4] relates to cocaine-trained rats. The note with it: doses of up to 3.2 mg/kg/injection; three-day substitution tests and progressive ratio tests; cited from earlier work.

As for `COC(=O)[C@H]1[C@@H](OC(=O)c2ccccc2)C[C@@H]2CC[C@H]1N2C` [cocaine], the progressive ratio breakpoint in data set [1] (maintenance dose 0.56 mg/kg/infusion) is 128 responses.

For `COc1ccc2c3c1O[C@H]1C(=O)CC[C@H]4[C@@H](C2)N(C)CC[C@]314` [hydrocodone], in data set [1] (0.18 mg/kg/infusion), the progressive ratio breakpoint is 114.

Take `CN1CC[C@]23c4c5ccc(O)c4O[C@H]2[C@@H](O)C=C[C@H]3[C@H]1C5` [morphine, reference compound]: the “injection lever responses (% ILR)” value in data set [2] (0.03 mg/kg/injection IV) was 100%.

Regarding `COc1ccc2c3c1O[C@H]1C(=O)CC[C@@]4(O)[C@@H](C2)N(C)CC[C@]314` [oxycodone], the “mean progressive ratio breakpoint” value in data set [1] (0.01 mg/kg/infusion) is given as 56; in data set [1] (0.032 mg/kg/infusion) it was 79. Also, the “injection lever responses (% ILR)” value in data set [2] (0.1 mg/kg/injection IV) was 100%.

Turning to `COCCOCCOCCOCCO[C@H]1CC[C@@]2(O)[C@H]3Cc4ccc(OC)c5c4[C@@]2(CCN3C)[C@H]1O5` [α-6-mPEG4-O-hydroxycodone], the “Mean Number of writhes” value in data set [3] (dose 5 mg/kg oral) worked out at 13; in data set [3] (dose 10 mg/kg oral), 4.8.

As to `COCCOCCOCCOCCOCCO[C@H]1CC[C@@]2(O)[C@H]3Cc4ccc(OC)c5c4[C@@]2(CCN3C)[C@H]1O5` [α-6-mPEG5-O-hydroxycodone], the “reduction of writhings, combination versus each compound individually (FIG. 2)” value in data set [3] (combination with diclofenac (3 mg/kg)) is on record as “measured reduction of writhings that is greater than the number of writhings when each compound is individually administered”. Further, the figures for the “Mean Number of writhes” value in data set [3] (dose 5 mg/kg oral) and in data set [3] (dose 10 mg/kg oral) were 7.2 and 1.4, respectively.

In the case of `COCCOCCOCCOCCOCCOCCO[C@H]1CC[C@@]2(O)[C@H]3Cc4ccc(OC)c5c4[C@@]2(CCN3C)[C@H]1O5` [α-6-mPEG6-O-hydroxycodone], the “behavioral evidence of positive reinforcement” value in data set [4] is “no behavioral evidence of positive reinforcement”. In addition, in data set [1] (behaved like saline), the “reinforcing properties in progressive ratio tests” value was “no reinforcing properties”. The “progressive ratio breakpoints compared with saline” value in data set [1] (five out of six tested doses) was “lower than that produced by saline”. Besides, the “Mean Number of writhes” value in data set [3] (dose 5 mg/kg oral) is reported as 6.2; in data set [3] (dose 10 mg/kg oral), 4. Moreover, the “injection lever responses (% ILR)” value was 22% in data set [2] (0.32 mg/kg IV), 39% in data set [2] (1.0 mg/kg IV) and 50% in data set [2] (3.2 mg/kg IV). Moreover, the “exclusive injection lever responding, number of subjects” value in data set [2] (highest dose tested, 3.2 mg/kg/injection, 3-4 subjects) is “only two subjects”. Moreover, in data set [2] (highest doses tested of 3.2 mg/kg/injection), the reinforcing strength result is given as “marked reduction in reinforcing strength”. Also, the “potency in self-administration relative to oxycodone and morphine” value in data set [2] (monkeys) is “significantly lower potency than oxycodone and morphine”.
